Data published in article PMC7949049 (The Journal of Biological Chemistry, 2020).
“Also recorded” adds a separate entry of the source. Blank lines part the entries; values can stand above or below the molecule they belong to. Positions of bridges follow the written chain, without caps; N, C: chain ends. Non-standard residues stand in square brackets, D forms with d. Residues, ends and D or L forms follow the SMILES beside them. No end group written: not given here. *: point of attachment. 5FAM = O=C1OC2(c3ccc(O)cc3Oc3cc(O)ccc32)c2ccc(C(=O)*)cc21; S5 = C=CCCC[C@](C)(N)C(=O)O; PEG2 = NCCOCCOCCC(=O)O

Assays:
[1] = molecular target: T1, RalA·GDP (Homo sapiens, UniProt P11233, Q72L); experiment: Direct-binding fluorescence polarization, RalA·GDP; settings: 20 nM FAM-labeled peptide, n = 3, NB = no binding; for Kd: read-out: Kd RalA·GDP, FP
T1 construct: RalA (pMAT10, residues 1–184, Q72L); His6-MBP (cleaved yes); made in house
T1 sequence (P11233 1-184 Q72L): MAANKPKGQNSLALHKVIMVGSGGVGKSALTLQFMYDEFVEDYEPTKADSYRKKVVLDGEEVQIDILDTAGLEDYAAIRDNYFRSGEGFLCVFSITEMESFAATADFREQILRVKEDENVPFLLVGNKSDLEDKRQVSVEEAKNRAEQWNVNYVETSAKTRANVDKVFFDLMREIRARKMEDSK
Experimental: (§1) FP experiments were performed on a BMG Labtech Pherastar fluorimeter at 298 K with excitation at 485 nm and emission at 520 nm as described previously ([34]), using 20 nM FAM-labeled peptide. Plates were read after 30 min incubation at room temperature. Data were fitted to a single-site binding model using nonlinear regression analysis in GraphPad prism 8.4 to obtain Kd values and their standard errors.

[2] = molecular target: T2, RhoA·GMPPNP (Homo sapiens, UniProt P61586, F25N/Q63L); experiment: Direct-binding fluorescence polarization, RhoA; settings: 20 nM FAM-labeled peptide, n = 3, NB = no binding, GTPase up to 100 μM; for Kd: read-out: Kd RhoA·GMPPNP, FP
T2 construct: RhoA (pGEX-2T, 1–186, F25N/Q63L); GST (cleaved yes); made in house
Experimental: as §1

[3] = molecular target: T3, Rac1·GMPPNP (Homo sapiens, UniProt P63000, Q61L); experiment: Direct-binding fluorescence polarization, Rac1; settings: 20 nM FAM-labeled peptide, n = 3, NB = no binding, GTPase up to 100 μM; for Kd: read-out: Kd Rac1·GMPPNP, FP
T3 construct: Rac1 (pGEX-2T, 1–185, Q61L); GST (cleaved yes); made in house
Experimental: as §1

[4] = molecular target: RalA; experiment: Direct-binding SPA of RalA to His-tagged RLIP76 RBD variants; settings: 80 nM His-tagged RBD, n = 2; for apparent Kd RalA, direct SPA (Fig. S1): [3H]GTP-labelled RalA titrated, experiment of Fig. S1
Experimental: Ral proteins were labeled with [^3H]GTP for use in SPAs as follows. [^3H]GTP (0.15 mCi, PerkinElmer Life Sciences) was dried by centrifugal evaporation. Ral (0.7 mg) and 0.3 M (NH4)2SO4 were added in 140 μl of buffer (10 mM Tris-HCl, 150 mM NaCl, 1 mM DTT, pH 7.5). The mixture was incubated at 37 °C for 3 h, and unbound nucleotide was removed with Sephadex G25 spin columns (GE Healthcare).
[^3H]GTP·Ral proteins were titrated at the concentrations indicated in the results. […] The equilibrium binding constants (Kd) for the effector–Ral interactions were determined by monitoring the SPA signal in the presence of varying concentrations of [^3H]GTP·Ral and fitted using nonlinear regression with the computer program Grafit.

[5] = molecular target: T4, RalA (residues 1-184, Q72L) (UniProt P11233 1-184, Q72L); experiment: fluorescence polarisation; direct binding of 20 nM FAM-labelled peptide to varying concentrations of small GTPase; 298 K; read after 30 min at room temperature; single-site binding model; n >= 2; settings: both partners purified
T4 construct: RalA small GTPase, residues 1-184, constitutively active Q72L; Loaded with [3H]GTP for the SPAs; also called [3H]GTP-labelled RalA; source: expressed from pMAT10 as His6-MBP fusion, prepared and cleaved from its tags as described previously
T4 sequence (looked up): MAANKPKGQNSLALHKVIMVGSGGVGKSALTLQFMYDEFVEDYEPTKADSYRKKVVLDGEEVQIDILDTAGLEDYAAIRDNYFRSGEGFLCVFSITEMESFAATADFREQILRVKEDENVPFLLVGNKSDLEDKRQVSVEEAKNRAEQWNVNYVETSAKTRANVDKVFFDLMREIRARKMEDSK

[6] = molecular target: T5, RalB (residues 1-185, Q72L) (UniProt P11234 1-185, Q72L); experiment: as above; settings: both partners purified
T5 construct: source: expressed from pMAT10 as His6-MBP fusion, prepared and cleaved from its tags as described previously
T5 sequence (looked up): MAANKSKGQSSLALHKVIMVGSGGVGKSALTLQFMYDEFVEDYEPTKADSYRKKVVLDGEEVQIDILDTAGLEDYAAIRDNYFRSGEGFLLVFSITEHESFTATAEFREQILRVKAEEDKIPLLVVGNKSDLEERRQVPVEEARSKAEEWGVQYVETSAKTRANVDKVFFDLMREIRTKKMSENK

[7] = molecular target: T6, RalA (residues 1–184, Q72L) (UniProt P11233 1-184, Q72L); experiment: scintillation proximity assay (competition); His-tagged wild-type RLIP76 RBD immobilised on SPA beads, fixed [3H]GTP·RalA (100 nM) or [3H]GTP·RalB (250 nM), competitor RBD or peptide titrated; pure competition model, apparent Kd (Ki); settings: both partners purified
T6 construct: RalA small GTPase, residues 1-184, constitutively active Q72L; Loaded with [3H]GTP for SPA, with GMPPNP or GDP for fluorescence polarisation; also called RalA·GTP; [3H]-GTP RalA; source: expressed from pMAT10 as His6-MBP fusion, cleaved from its tag as described previously
T6 sequence (looked up): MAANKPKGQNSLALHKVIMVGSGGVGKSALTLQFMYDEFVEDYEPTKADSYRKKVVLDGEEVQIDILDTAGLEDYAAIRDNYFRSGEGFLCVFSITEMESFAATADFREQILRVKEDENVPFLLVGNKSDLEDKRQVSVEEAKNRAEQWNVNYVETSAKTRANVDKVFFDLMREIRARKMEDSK

[8] = molecular target: T6, RalA (residues 1–184, Q72L); experiment: scintillation proximity assay (competition); GST-tagged Sec5 RBD immobilised on SPA beads, fixed [3H]-GTP RalA, peptides or RLIP76 RBD titrated; pure competition model, apparent Kd (Ki); settings: both partners purified
[9] = molecular target: T6, RalA (residues 1–184, Q72L); experiment: scintillation proximity assay (competition); His-tagged wild-type RLIP76 RBD immobilised on SPA beads, fixed [3H]GTP·RalA (100 nM) or [3H]GTP·RalB (250 nM), competitor RBD or peptide titrated; pure competition model, apparent Kd (Ki); settings: both partners purified; remark: listed apart in the source
[10] = molecular target: T7, RalB (residues 1–185, Q72L) (UniProt P11234 1-185, Q72L); experiment: as above; settings: both partners purified
T7 construct: Loaded with [3H]GTP for SPA, with GMPPNP for ITC, FP and crystallisation; also called RalB·GTP; source: expressed from pMAT10 as His6-MBP fusion, cleaved from its tag as described previously
T7 sequence (looked up): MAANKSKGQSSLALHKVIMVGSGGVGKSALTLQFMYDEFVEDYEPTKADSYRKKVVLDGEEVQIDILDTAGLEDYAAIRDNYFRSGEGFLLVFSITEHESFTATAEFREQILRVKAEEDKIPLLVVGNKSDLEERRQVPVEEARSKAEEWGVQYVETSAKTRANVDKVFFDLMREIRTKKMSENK

T2 sequence (P61586 1-186 F25N/Q63L): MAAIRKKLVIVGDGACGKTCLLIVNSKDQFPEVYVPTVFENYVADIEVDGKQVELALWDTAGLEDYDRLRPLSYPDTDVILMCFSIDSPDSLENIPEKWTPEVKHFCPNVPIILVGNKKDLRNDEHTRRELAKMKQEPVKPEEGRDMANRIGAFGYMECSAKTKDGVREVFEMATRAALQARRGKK

Kd RalA·GDP, FP [1]: binding was too weak
Kd [1]: > 100 µM
Kd RhoA·GMPPNP, FP [2]: binding was too weak
Kd [2]: > 100 µM
Kd Rac1·GMPPNP, FP [3]: binding was too weak
Kd [3]: > 100 µM
Molecule: CC[C@H](C)[C@H](NC(=O)[C@H](CCCNC(=N)N)NC(=O)[C@H](CC(C)C)NC(=O)[C@H](CCC(=O)O)NC(=O)[C@H](CCC(=O)O)NC(=O)[C@H](Cc1c[nH]c2ccccc12)NC(=O)[C@H](CC(C)C)NC(=O)[C@]1(C)CCCC=CCCC[C@](C)(NC(=O)[C@H](CC(C)C)NC(=O)CCOCCOCCNC(=O)c2ccc3c(c2)C(=O)OC32c3ccc(O)cc3Oc3cc(O)ccc32)C(=O)N[C@@H](CCCCN)C(=O)N[C@@H](CCC(=O)O)C(=O)N[C@@H](Cc2c[nH]cn2)C(=O)N1)C(=O)N[C@@H](CCCCN)C(=O)N[C@H](C(=O)N[C@@H](C)C(=O)N[C@@H](CCC(=O)O)C(=O)N[C@@H](CCCNC(=N)N)C(=O)N[C@@H](CCCNC(=N)N)C(=O)N[C@@H](CCCCN)C(=O)N[C@@H](CCCCN)C(=O)N[C@@H](CCCNC(=N)N)C(=O)N[C@@H](CCC(=O)O)C(=O)N[C@@H](C)C(N)=O)[C@@H](C)O [HLR-sol] ({5FAM-PEG2}-L[S5]KEH[S5]LWEELRIKTAERRKKREA-NH2; staple 2-6)

Kd RalA·GDP, FP [1]: binding was too weak
Kd [1]: > 100 µM
Kd RhoA·GMPPNP, FP [2]: binding was too weak
Kd [2]: > 100 µM
Kd Rac1·GMPPNP, FP [3]: binding was too weak
Kd [3]: > 100 µM
Molecule: CC[C@H](C)[C@H](NC(=O)[C@H](CCCNC(=N)N)NC(=O)[C@H](CC(C)C)NC(=O)[C@H](CCC(=O)O)NC(=O)[C@H](CCC(=O)O)NC(=O)[C@H](Cc1c[nH]c2ccccc12)NC(=O)[C@H](CC(C)C)NC(=O)[C@]1(C)CCCC=CCCC[C@](C)(NC(=O)[C@H](CC(C)C)NC(=O)CCOCCOCCNC(=O)c2ccc3c(c2)C(=O)OC32c3ccc(O)cc3Oc3cc(O)ccc32)C(=O)N[C@@H](CCCCN)C(=O)N[C@@H](CCC(=O)O)C(=O)N[C@@H](CCC(=O)O)C(=O)N1)C(=O)N[C@@H](CCCCN)C(=O)N[C@H](C(=O)N[C@@H](C)C(=O)N[C@@H](CCC(=O)O)C(=O)N[C@@H](CCCCN)C(=O)N[C@@H](CCCNC(=N)N)C(=O)N[C@@H](CCCCN)C(=O)N[C@@H](CCCCN)C(=O)N[C@@H](CCCNC(=N)N)C(=O)N[C@@H](CCC(=O)O)C(=O)N[C@@H](C)C(N)=O)[C@@H](C)O [L-sol] ({5FAM-PEG2}-L[S5]KEE[S5]LWEELRIKTAEKRKKREA-NH2; staple 2-6)

Molecule: ETQAGIKEEIRRQEFLLNSLHRDLQGGIKDLSKWDRAWEVSQILSALRRKLREA [WDASQSR]
apparent Kd RalA, direct SPA (Fig. S2) ([4]; [3H]GTP-labeled RalA titrated, experiment of Fig. S2): no fit could be obtained as binding was too weak; also recorded: did not bind

apparent Kd RalA, direct SPA (Fig. S1) ([4]; listed as E426L/E427T/Q433T/R434L/T437R): did not bind
Molecule: LTTLR mutant: His-tagged RLIP76 RBD consensus sequence lacking the K440P substitution (ETQAGIKEEIRRQEFLLNSLHRDLQGGIKDLSKLTRLWEVTLILRALKRKLREA; also: His-tagged, tag position not given here)
apparent Kd RalA, direct SPA (Fig. S1) [4]: no fit could be obtained as binding was too weak

Kd [5]: 4.68 µM
Kd [6]: 0.159 µM
Molecule: 5FAM-L[S5]KEH[S5]LWEVLRILTALRRKLREA (staple 2-6)

Kd [7]: 2.97 µM
Kd [8]: 1.74 µM
B1: HLR-sol stapled peptide (peptide)
chain: L[S5]KEH[S5]LWEELRIKTAERRKKREA-NH2
modifications: staple 2-6; N-terminus assumed
SMILES: CC[C@H](C)[C@H](NC(=O)[C@H](CCCNC(=N)N)NC(=O)[C@H](CC(C)C)NC(=O)[C@H](CCC(=O)O)NC(=O)[C@H](CCC(=O)O)NC(=O)[C@H](Cc1c[nH]c2ccccc12)NC(=O)[C@H](CC(C)C)NC(=O)[C@]1(C)CCCC=CCCC[C@](C)(NC(=O)[C@@H](N)CC(C)C)C(=O)N[C@@H](CCCCN)C(=O)N[C@@H](CCC(=O)O)C(=O)N[C@@H](Cc2c[nH]cn2)C(=O)N1)C(=O)N[C@@H](CCCCN)C(=O)N[C@H](C(=O)N[C@@H](C)C(=O)N[C@@H](CCC(=O)O)C(=O)N[C@@H](CCCNC(=N)N)C(=O)N[C@@H](CCCNC(=N)N)C(=O)N[C@@H](CCCCN)C(=O)N[C@@H](CCCCN)C(=O)N[C@@H](CCCNC(=N)N)C(=O)N[C@@H](CCC(=O)O)C(=O)N[C@@H](C)C(N)=O)[C@@H](C)O

Kd [7]: 48.6 µM
B2: wt-sol stapled peptide (peptide)
chain: L[S5]KEE[S5]LWEEQRIKTAEKRKKREA-NH2
modifications: staple 2-6; N-terminus assumed
SMILES: CC[C@H](C)[C@H](NC(=O)[C@H](CCCNC(=N)N)NC(=O)[C@H](CCC(N)=O)NC(=O)[C@H](CCC(=O)O)NC(=O)[C@H](CCC(=O)O)NC(=O)[C@H](Cc1c[nH]c2ccccc12)NC(=O)[C@H](CC(C)C)NC(=O)[C@]1(C)CCCC=CCCC[C@](C)(NC(=O)[C@@H](N)CC(C)C)C(=O)N[C@@H](CCCCN)C(=O)N[C@@H](CCC(=O)O)C(=O)N[C@@H](CCC(=O)O)C(=O)N1)C(=O)N[C@@H](CCCCN)C(=O)N[C@H](C(=O)N[C@@H](C)C(=O)N[C@@H](CCC(=O)O)C(=O)N[C@@H](CCCCN)C(=O)N[C@@H](CCCNC(=N)N)C(=O)N[C@@H](CCCCN)C(=O)N[C@@H](CCCCN)C(=O)N[C@@H](CCCNC(=N)N)C(=O)N[C@@H](CCC(=O)O)C(=O)N[C@@H](C)C(N)=O)[C@@H](C)O

Kd [9]: 2.75 µM
Kd [10]: 10.3 µM
B3: RLIP76 RBD WNASELR mutant (domain or fragment)
chain: ETQAGIKEEIRRQEFLLNSLHRDLQGGIKDLSKWNRAWEVSEILLALRRKLREA
notes: RLIP76 residues 423-446 (helix α2); Selected by CIS display; source: E. coli, recombinant; cleaved from its tag

Kd [9]: 0.53 µM
Kd [10]: 1.2 µM
B4: RLIP76 RBD WDASTAY mutant (domain or fragment)
chain: ETQAGIKEEIRRQEFLLNSLHRDLQGGIKDLSKWDRAWEVSTILAALYRKLREA
notes: as for B3

Kd [5]: 17.2 µM
Kd [6]: 4.7 µM
Molecule: 5FAM-L[S5]KEE[S5]LWEVQRILTALKRKLREA (staple 2-6)
